pIC50: −log10 of the molar value. Values joined by “and” are separate entries in the source; they are usually repeats but may differ in a detail not shown here. Equal values may be shown once.
Columns and labels:
[1] = Plasma Protein Binding (Human), equilibrium dialysis; assay type: in vitro ADME; conditions: 1.0E−05 M
[2] = Maximum Tolerated Dose toxicity study in mice; conditions: both, CD-1, mouse, in vivo, 14 days
Method: The toxicity study in mice (Maximum Tolerated Dose) was done with CD-1 strain of mice in groups of 50% male-50% female animals (10 animals per group) at the dosing levels of 2.5, 5, 10, and 20 mg/kg (intarperitoneal) and 5 and 10 mg/kg (peroral). Animals were dosed for 14 days, bid (the actual daily doses were twice those shown) and observed without dosing for additional 14 days. […].

ALK = ALK (Homo sapiens, UniProt Q9UM73); assay: Invitrogen SelectScreen Z-lyte kinase assay, ALK; assay type: biochemical; set-up: purchased Invitrogen (SelectScreen service); conditions: 100 μM ATP
Method: (§1) To evaluate selectivity versus other kinases, inhibition of various kinases by compound (II) was determined. In particular, IC50s for TrkA, Jak2, Axl tyrosine kinases were determined using ADP Hunter (DiscoverX) kinase assay. Single point profiling of compound (II) on 50 human tyrosine kinases and 10 Ser-Thr kinases was done at Upstate/Millipore by radiometric assay. […] The subset of the 520 kinases in the human kinome that were tested was strategically selected to cover most of the therapeutically relevant tyrosine kinases and to represent major branches of serine-threonine kinases.
(§2) Compound (II) was a multitargeted tyrosine kinase (TK) inhibitor with a distinct pattern of inhibition focused on ALK, Trk family, Ros and Ret kinases. Invitrogen SelectScreen (Z-lyte assay) produced the following IC5O values for this set of kinases: ALK 9.75 nM, TrkA 1.5 nM, TrkB 1.4 nM, TrkC 1.8 nM, Ret 7.1 nM, Ros 1.8 nM (all measured at 100 μM ATP). […] About 70% of the 50 TKs tested have selectivity in excess of 50-fold for ALK and higher for Ret, Ros and Trk family members.

TrkC = molecular target: T1, TrkC (Homo sapiens, UniProt Q16288); assay: Invitrogen SelectScreen Z-lyte kinase assay, TrkC; assay type: biochemical; conditions: 100 μM ATP
T1 construct: purchased Invitrogen (SelectScreen service)
Method: as §1, §2

[3] = Caco-2 (TC7) A-B Permeability test (pH 6.5/7.4); conditions: human
JB6 = assay: Cell proliferation inhibition, ALCL line JB6; assay type: cell-based; conditions: Example 4, most sensitive cell lines, read-out: Proliferation IC50 JB6
Text: Cell proliferation inhibition assays were run for compound (II) with the five target NPM-ALK-dependent ALCL cell lines (Karpas 299, SuDHL-1, JB6, SupM2, UConn) and 12 unrelated cell lines (HEK293, CHO-K1, MCF7, HepG2, H292, H520, H1581, H596, H522, CHA-GO-K1, UMC-11, SK-MES1). […] The pronounced target cell-killing effect is also observed (molecular mechanisms to be determined).

CYP2C9 = molecular target: T2, CYP2C9 (Homo sapiens, UniProt P11712); assay: CYP2C9 Inhibition (recombinant, MFC substrate); assay type: in vitro ADME
T2 construct: purchased Cerep (contract assay, ADMET Study 13170)
T2 sequence (P11712 whole entry): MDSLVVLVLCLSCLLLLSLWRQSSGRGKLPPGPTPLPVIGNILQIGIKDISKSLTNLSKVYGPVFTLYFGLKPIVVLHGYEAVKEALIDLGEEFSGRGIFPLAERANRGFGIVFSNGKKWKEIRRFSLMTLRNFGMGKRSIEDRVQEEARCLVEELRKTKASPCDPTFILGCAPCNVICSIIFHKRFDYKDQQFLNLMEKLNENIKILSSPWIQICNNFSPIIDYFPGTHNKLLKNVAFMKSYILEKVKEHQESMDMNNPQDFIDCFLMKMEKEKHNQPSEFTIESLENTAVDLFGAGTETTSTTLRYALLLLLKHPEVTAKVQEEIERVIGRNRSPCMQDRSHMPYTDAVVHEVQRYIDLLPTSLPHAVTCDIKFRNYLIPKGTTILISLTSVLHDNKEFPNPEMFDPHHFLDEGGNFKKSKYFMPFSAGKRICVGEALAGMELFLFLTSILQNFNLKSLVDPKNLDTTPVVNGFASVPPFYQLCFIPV

ALK, sequence (Q9UM73 19-1620): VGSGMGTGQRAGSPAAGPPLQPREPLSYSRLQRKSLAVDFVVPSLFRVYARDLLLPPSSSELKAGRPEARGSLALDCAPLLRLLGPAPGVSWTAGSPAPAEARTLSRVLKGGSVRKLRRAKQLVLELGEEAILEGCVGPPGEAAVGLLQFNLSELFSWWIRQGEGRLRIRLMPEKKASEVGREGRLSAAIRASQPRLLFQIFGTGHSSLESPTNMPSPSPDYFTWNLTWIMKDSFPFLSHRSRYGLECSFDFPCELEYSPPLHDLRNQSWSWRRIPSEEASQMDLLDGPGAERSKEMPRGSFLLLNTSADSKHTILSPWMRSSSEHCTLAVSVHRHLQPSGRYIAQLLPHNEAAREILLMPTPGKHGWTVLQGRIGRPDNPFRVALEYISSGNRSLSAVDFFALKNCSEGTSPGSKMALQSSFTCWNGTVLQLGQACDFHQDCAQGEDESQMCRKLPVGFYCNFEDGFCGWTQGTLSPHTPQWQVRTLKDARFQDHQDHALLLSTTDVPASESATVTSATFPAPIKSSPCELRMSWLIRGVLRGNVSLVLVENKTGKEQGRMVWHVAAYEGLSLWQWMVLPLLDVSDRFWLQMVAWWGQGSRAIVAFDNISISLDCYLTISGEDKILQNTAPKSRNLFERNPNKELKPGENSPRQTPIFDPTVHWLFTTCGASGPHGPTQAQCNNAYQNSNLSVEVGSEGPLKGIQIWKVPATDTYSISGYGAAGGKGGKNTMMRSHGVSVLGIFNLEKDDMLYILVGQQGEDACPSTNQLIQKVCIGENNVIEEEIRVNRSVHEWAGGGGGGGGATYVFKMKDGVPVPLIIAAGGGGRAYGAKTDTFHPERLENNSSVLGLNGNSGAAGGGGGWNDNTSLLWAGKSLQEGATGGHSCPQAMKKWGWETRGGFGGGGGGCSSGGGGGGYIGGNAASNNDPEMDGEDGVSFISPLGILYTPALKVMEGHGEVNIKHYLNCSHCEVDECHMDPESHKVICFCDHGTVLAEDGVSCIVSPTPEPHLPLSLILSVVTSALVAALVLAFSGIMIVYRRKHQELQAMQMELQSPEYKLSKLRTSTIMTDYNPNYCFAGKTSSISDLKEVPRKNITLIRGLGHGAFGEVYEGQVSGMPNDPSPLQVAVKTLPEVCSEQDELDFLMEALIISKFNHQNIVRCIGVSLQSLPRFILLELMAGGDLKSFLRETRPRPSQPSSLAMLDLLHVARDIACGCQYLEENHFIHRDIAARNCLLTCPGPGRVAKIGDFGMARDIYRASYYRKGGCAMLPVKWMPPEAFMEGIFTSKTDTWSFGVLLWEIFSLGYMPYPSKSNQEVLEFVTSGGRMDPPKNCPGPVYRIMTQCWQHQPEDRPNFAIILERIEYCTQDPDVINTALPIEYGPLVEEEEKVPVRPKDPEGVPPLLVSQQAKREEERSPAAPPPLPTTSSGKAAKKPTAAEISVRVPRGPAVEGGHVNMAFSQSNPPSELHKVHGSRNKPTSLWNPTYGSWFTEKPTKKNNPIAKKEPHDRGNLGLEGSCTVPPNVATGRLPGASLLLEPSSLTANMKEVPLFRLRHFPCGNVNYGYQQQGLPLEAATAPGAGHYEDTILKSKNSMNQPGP
T1 sequence (Q16288 32-839): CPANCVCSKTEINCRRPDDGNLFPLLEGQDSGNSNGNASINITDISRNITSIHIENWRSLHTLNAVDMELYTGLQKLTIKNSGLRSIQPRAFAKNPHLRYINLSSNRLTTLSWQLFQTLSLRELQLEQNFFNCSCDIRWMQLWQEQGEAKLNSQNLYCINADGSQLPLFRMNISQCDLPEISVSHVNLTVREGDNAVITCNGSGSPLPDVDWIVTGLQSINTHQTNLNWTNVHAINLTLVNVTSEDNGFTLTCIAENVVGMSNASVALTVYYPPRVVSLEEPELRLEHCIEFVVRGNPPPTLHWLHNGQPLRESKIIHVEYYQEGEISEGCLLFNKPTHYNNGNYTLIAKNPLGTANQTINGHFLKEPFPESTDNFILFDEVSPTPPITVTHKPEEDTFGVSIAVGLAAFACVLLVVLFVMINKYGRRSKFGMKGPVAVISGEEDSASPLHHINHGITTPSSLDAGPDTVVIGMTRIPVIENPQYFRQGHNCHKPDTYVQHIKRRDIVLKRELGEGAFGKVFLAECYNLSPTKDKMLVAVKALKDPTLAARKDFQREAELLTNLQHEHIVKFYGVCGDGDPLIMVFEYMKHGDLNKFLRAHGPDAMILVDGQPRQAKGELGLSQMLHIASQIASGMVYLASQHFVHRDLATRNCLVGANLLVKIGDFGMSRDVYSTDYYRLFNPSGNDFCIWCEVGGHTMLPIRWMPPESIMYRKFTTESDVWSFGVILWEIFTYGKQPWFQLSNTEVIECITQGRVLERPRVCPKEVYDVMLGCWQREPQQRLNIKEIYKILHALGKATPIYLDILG

Q: Which results are given for `Cc1ccc(F)cc1C[C@H](C)Nc1cc[nH]c(=O)c1-c1nc2cc3c(cc2[nH]1)C(=O)N(CCN1CCCC1)C3` [compound (II)]?
A: % Protein Bound, Mean ([1]; equilibrium dialysis): 94.7%; % Protein Bound, 1st/2nd ([1]; individual data, listed as CRL241): 94.6% and 94.7%; Adverse effects at 5 and 10 mg/kg oral [2]: No adverse effects were observed; Tolerability at 2.5 or 5 mg/kg IP [2]: safe; Tolerability at 10 and 20 mg/kg IP [2]: exceeded MTD; pIC50 (ALK): 8.01; pIC50 (TrkC): 8.74; Papp A→B at 10 µM ([3]; Caco-2, pH 6.5, Caco-2 (TC7) A-B permeability coefficient, pH 6.5/7.4, 10 μM compound): 0.4 ×10⁻⁶ cm/s; recovery at 10 µM ([3]; Caco-2, pH 6.5, Caco-2 recovery, pH 6.5/7.4, 10 μM compound): 49%; Papp A→B at 10 µM ([3]; Caco-2, pH 6.5, Mean Permeability, A-B Permeability (TC7, pH 6.5/7.4), test concentration 1.0E−05 M, mean of n = 2): 0.4 ×10⁻⁶ cm/s; recovery at 10 µM ([3]; Caco-2, pH 6.5, Mean Recovery, A-B Permeability (TC7, pH 6.5/7.4), test concentration 1.0E−05 M, mean of n = 2): 49%; Papp A→B at 10 µM ([3]; Caco-2, pH 6.5, Permeability 1st, A-B Permeability (TC7, pH 6.5/7.4), test concentration 1.0E−05 M, 1st replicate): 0.41 ×10⁻⁶ cm/s; Papp A→B at 10 µM ([3]; Caco-2, pH 6.5, Permeability 2nd, A-B Permeability (TC7, pH 6.5/7.4), test concentration 1.0E−05 M, 2nd replicate): 0.44 ×10⁻⁶ cm/s; recovery at 10 µM ([3]; Caco-2, pH 6.5, Present Recovery 1st, A-B Permeability (TC7, pH 6.5/7.4), test concentration 1.0E−05 M, 1st replicate): 50%; recovery at 10 µM ([3]; Caco-2, pH 6.5, Present Recovery 2nd, A-B Permeability (TC7, pH 6.5/7.4), test concentration 1.0E−05 M, 2nd replicate): 47%; pIC50 (JB6): 8.00 to 8.30; activity at 1 µM (CYP2C9; human, recombinant CYP2C9, probe MFC, 1.0E−06 M, Table 5B individual results, read-out: CYP2C9 % Inhibition of Control Values, 1st/2nd/3rd): 75.8%; activity at 5 µM (CYP2C9; human, recombinant CYP2C9, probe MFC, 5.0E−06 M, Table 5B individual results, read-out: CYP2C9 % Inhibition of Control Values, 1st/2nd/3rd): 63.8%; inhibition at 1 µM (CYP2C9; human, recombinant CYP2C9, probe MFC, 1.0E−06 M, read-out: CYP2C9 % Inhibition of Control Values): 20%; inhibition at 5 µM (CYP2C9; human, recombinant CYP2C9, probe MFC, 5.0E−06 M, read-out: CYP2C9 % Inhibition of Control Values): 41%; pIC50 (CYP2C9; read-out: approximate IC50 CYP2C9): < 5.30

Reference: patent US9249147B2, “Tyrosine kinase inhibitors” (CHEMBRIDGE CORPORATION, priority 2008, dated 2016)
